Each structure is given as a SMILES string.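 48-hour exposure; five concentrations; linearly interpolated endpoints. Here, GI50 denotes the concentration required for 50% inhibition of growth.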 Active and inactive are the calls of the source. No stated cut-off is given here; in the data, active = GI50 up to about 1.1 µM and inactive = higher.

Among the test systems are MDA-MB-435; MDA-N; Malme-3M; SK-MEL-28; SN12C; OVCAR-5; A498; HL-60; HCC 2998; OVCAR-3; COLO 205; MCF7; PC-3; SF-268; SK-MEL-5; HOP-92; NCI-H23; HOP-62; UACC-62; NCI-H522.
What all share (test): DTP human tumour cell line panel, 48 h

What is called GI50 is the concentration that inhibits growth by half. For the compound `CCOC(=O)c1[nH]c2cccc3c2c1CC[C@H](NC(=O)C(F)(F)F)C3=O`, the GI50 with MDA-MB-435 was 45.1 µM (inactive); with MDA-N it was 34.5 µM (inactive); with Malme-3M, > 100 µM (inactive); in the assay on SK-MEL-28 it was < 0.01 µM (active); in the assay on SN12C it was 40.3 µM (inactive); in the assay with OVCAR-5 it was > 100 µM (inactive). For the same compound, the GI50 in the assay on A498 is 43.7 µM (inactive); with HL-60, > 100 µM (inactive); with HCC 2998, > 100 µM (inactive); in the assay on OVCAR-3 it was > 100 µM (inactive); in the assay on COLO 205, > 100 µM (inactive); in the assay on MCF7 it was 73.1 µM (inactive). In addition, the GI50 with PC-3 is 64.6 µM (inactive); in the assay with SF-268, 37.1 µM (inactive); with SK-MEL-5, 22.5 µM (inactive); with HOP-92, 22.6 µM (inactive); in the assay on NCI-H23, 70.6 µM (inactive); with HOP-62 it was 24 µM (inactive).

Take `CCCC#CC(O)(C(=O)OC1CCN(C)CC1)C1CCCCC1` (centres undefined): the GI50 in the assay on MDA-MB-435, in the assay with MDA-N, in the assay on Malme-3M, in the assay with SK-MEL-28, in the assay on SN12C and in the assay on OVCAR-5 was > 100 µM (inactive) throughout. The GI50 in the assay with UACC-62 was > 100 µM (inactive); in the assay with A498, 94.6 µM (inactive); with HCC 2998 it was > 100 µM (inactive); with OVCAR-3, > 100 µM (inactive); in the assay on COLO 205 it was 94.6 µM (inactive); with MCF7 it was > 100 µM (inactive). For the same compound, the GI50 with PC-3 was 48.3 µM (inactive); in the assay on SF-268, > 100 µM (inactive); in the assay on SK-MEL-5 it was 38.9 µM (inactive); in the assay with HOP-92, 85.7 µM (inactive); with NCI-H23, > 100 µM (inactive); with HOP-62 it was 52 µM (inactive).

Consider `N#Cc1ncn(-c2ccccc2)c1N`, for which the GI50 in the assay with MDA-MB-435, in the assay with MDA-N, in the assay with Malme-3M, with NCI-H522, with SK-MEL-28 and in the assay on SN12C was > 100 µM (inactive) in each case. Moreover, the GI50 in the assay on OVCAR-5, in the assay on UACC-62, in the assay with A498, in the assay with HL-60, in the assay on HCC 2998 and in the assay with OVCAR-3 was > 100 µM (inactive) each time. The GI50 with COLO 205, in the assay with MCF7, in the assay on PC-3, with SF-268, with SK-MEL-5 and in the assay with NCI-H23 was > 100 µM (inactive) each time. Moreover, the GI50 with HOP-62 was > 100 µM (inactive).

As to `CCC1=CC(OCc2ccccc2)C(CCN(Cc2ccccc2)C(=O)OCc2ccccc2)C1` (centres undefined), the GI50 in the assay on MDA-MB-435 was 17.1 µM (inactive); in the assay with MDA-N it was 30.4 µM (inactive); with Malme-3M, 15.6 µM (inactive); in the assay on NCI-H522, 11.7 µM (inactive); in the assay on SK-MEL-28, 20.7 µM (inactive); with OVCAR-5 it was 13.5 µM (inactive). For the same compound, the GI50 with UACC-62 was 10.9 µM (inactive); with A498 it was 16 µM (inactive); with HCC 2998 it was 16.5 µM (inactive); with OVCAR-3, 14.2 µM (inactive); in the assay with COLO 205 it was 20.8 µM (inactive); in the assay on MCF7 it was 16.1 µM (inactive). In addition, the GI50 with PC-3 is 14.3 µM (inactive); in the assay with SF-268 it was 15.6 µM (inactive); in the assay with SK-MEL-5, 15.4 µM (inactive); in the assay with HOP-92, 13.5 µM (inactive); in the assay with NCI-H23, 14.9 µM (inactive); in the assay on HOP-62 it was 16.5 µM (inactive).

Regarding `Cn1c2ccccc2c(=NNc2ccc(S(=O)(=O)N=C(N)N)cc2)c2ccccc21`, the GI50 in the assay with MDA-MB-435 is 11 µM (inactive); with MDA-N, 12.4 µM (inactive); in the assay on Malme-3M, 8.26 µM (inactive); in the assay on NCI-H522, 3.82 µM (inactive); in the assay with SN12C, 8.63 µM (inactive); with OVCAR-5, 6.24 µM (inactive). Moreover, the GI50 with UACC-62 was 15.4 µM (inactive); in the assay with HL-60, 14.1 µM (inactive); in the assay on HCC 2998 it was 6.25 µM (inactive); in the assay with OVCAR-3, 7.35 µM (inactive); in the assay on COLO 205, 5.53 µM (inactive); with MCF7 it was 3.14 µM (inactive). Moreover, the GI50 in the assay with PC-3 was 7.94 µM (inactive); with SF-268, 5.75 µM (inactive); with SK-MEL-5, 5.41 µM (inactive); in the assay with HOP-92 it was 12.1 µM (inactive); in the assay on NCI-H23, 9.64 µM (inactive); with HOP-62, 11.8 µM (inactive).

As to `CC(=O)OC12CC(C(F)(F)F)(C(F)(F)F)OC1(OC(C)=O)CC(C(F)(F)F)(C(F)(F)F)O2` (centres undefined), the GI50 was 2.13 µM (inactive) with MDA-MB-435; 5.92 µM (inactive) in the assay with MDA-N; 4.86 µM (inactive) in the assay with Malme-3M; 1.24 µM (inactive) in the assay on NCI-H522; 4.54 µM (inactive) in the assay on SK-MEL-28; 4.66 µM (inactive) with SN12C. In addition, the GI50 in the assay on OVCAR-5 is 9.29 µM (inactive); in the assay on UACC-62, 2.66 µM (inactive); with A498, 2.14 µM (inactive); in the assay on HL-60, 1.89 µM (inactive); in the assay with HCC 2998, 9.08 µM (inactive); in the assay on OVCAR-3, 2.02 µM (inactive). Moreover, the GI50 in the assay on COLO 205 is 3.95 µM (inactive); in the assay on MCF7 it was 0.426 µM (active); in the assay with PC-3, 0.805 µM (active); in the assay on SF-268 it was 1.58 µM (inactive); with SK-MEL-5, 0.385 µM (active); in the assay with NCI-H23, 1.23 µM (inactive). For the same compound, the GI50 in the assay with HOP-62 is 25.4 µM (inactive).

As to `Cc1[nH]c2ncn(/N=C/c3ccccc3)c(=N)c2c1Cc1ccccc1`, the GI50 was 84.1 µM (inactive) in the assay on MDA-MB-435; 55.1 µM (inactive) in the assay on MDA-N; > 100 µM (inactive) in the assay on SK-MEL-28; > 100 µM (inactive) with SN12C; > 100 µM (inactive) in the assay on OVCAR-5; 58.9 µM (inactive) in the assay with UACC-62. The GI50 in the assay on A498 was 60.8 µM (inactive); in the assay on HL-60 it was > 100 µM (inactive); with HCC 2998, 83.9 µM (inactive); in the assay with OVCAR-3, > 100 µM (inactive); with COLO 205, > 100 µM (inactive); with MCF7, 79.6 µM (inactive). Moreover, the GI50 in the assay on PC-3 is 45.7 µM (inactive); in the assay on SF-268 it was > 100 µM (inactive); in the assay on HOP-92 it was 42.4 µM (inactive); in the assay on NCI-H23, > 100 µM (inactive); in the assay on HOP-62, > 100 µM (inactive).

Regarding `c1ccc2c(c1)cc1ccc3cccc4ccc2c1c34`, the GI50 was > 100 µM (inactive) in the assay with MDA-MB-435; > 100 µM (inactive) in the assay on MDA-N; > 100 µM (inactive) with NCI-H522; > 100 µM (inactive) with SK-MEL-28; > 100 µM (inactive) with SN12C; 67.9 µM (inactive) with UACC-62. Also, the GI50 in the assay with HL-60 was > 100 µM (inactive); with HCC 2998, > 100 µM (inactive); with OVCAR-3, > 100 µM (inactive); in the assay with COLO 205, > 100 µM (inactive); with MCF7, 0.134 µM (active); in the assay with PC-3, > 100 µM (inactive). Also, the GI50 in the assay on SF-268, with SK-MEL-5, with HOP-92, in the assay with NCI-H23 and in the assay with HOP-62 was > 100 µM (inactive) each time.

Values taken from ChEMBL document CHEMBL1201862, “PubChem BioAssay data set” (2004).
